Measurements from patent US11440922B2, “Heterocyclylmethylidene derivatives and their use as modulators of mGluR5 receptors” (Recordati Industria Chimica e Farmaceutica S.p.A., priority 2017, dated 2022).

Assays:
[1] = target: human mGluR5 receptor (Homo sapiens (Human), UniProt P41594); assay: Radioligand binding assay at cloned human mGluR5 receptor subtype ([3H]MPEP); settings: 4 nM [3H]MPEP, CHO T-REx h-mGluR5 cells, 60 min at 25° C.; read-out: mGlu5 Ki
Description: (§1) Cell lines stably transfected were generated using inducible expression vectors encoding human mGlu5 receptor using the Tetracycline-Regulated Expression system (T-REx™ system, Invitrogen, Life Technologies). Human mGluR5 open reading frame (ORF), comprehensive of the stop codon, were cloned into the pcDNA4/TO/myc-His™ A vector, carrying the TetO2. The insertion site was HindIII-PstI for mGluR5 receptors. The obtained constructs were then transfected into the T-REx CHO™ cell line using the FuGENE protocol (Roche); the CHO T-REx™ cell line stably expresses the Tet repressor (from the pcDNA6/TR plasmid) under the selection of blasticidin, 10 μg/ml. Stable clones were obtained selecting with zeocin 1 mg/ml and maintaining in ULTRA CHO medium (LONZA) supplemented with dialyzed FBS, zeocin, blasticidine, at 37° C., in an atmosphere of 5% CO2. The expression of h-mGluR5 receptors was de-repressed with 1 μg/ml tetracycline for 18 h before binding experimentation, while the expression of h-mGluR5 receptors was derepressed respectively with 3 ng/ml and 10 ng/ml tetracycline for 18 h before calcium fluorescence experimentation.
Radioligand Binding Assay at Cloned Human mGluR5 Receptor Subtype
Affinity at transmembrane glutamate metabotropic cloned human mGluR5 receptor was evaluated according to the methods of Anderson (Anderson et al., J Pharmacol. Exp. Ther., (2002), Vol. 303(3), pp. 1044-51), with some modifications. Human cloned mGluR5 was obtained by re-suspending CHO T-REx h-mGluR5 cells (50 μg/well) in 20 mM HEPES, 2 mM MgCl2, 2 mM CaCl2, pH 7.4, that then were incubated in a final volume of 1 ml for 60 min at 25° C. with 4 nM [^3H]MPEP in the absence or presence of competing drugs. Non-specific binding was determined in the presence of 10 μM MPEP. The incubation was stopped by addition of cold Tris buffer pH 7.4 and rapid filtration through 0.2% polyethyleneimine pretreated Filtermat 1204-401 (Perkin Elmer) filters. The filters were then washed with cold buffer and the radioactivity retained on the filters was counted by liquid scintillation spectrometry (Betaplate 1204 BS-Wallac).
(§2) The inhibition curves of the tested compounds at cloned mGluR5 subtypes were determined by nonlinear regression analysis using software Prism 4.0 (Graphpad, San Diego, Calif.). The IC50 values and pseudo-Hill slope coefficients were estimated by the program. The values for the inhibition constant, Ki, were calculated according to the equation Ki=IC50/(1+[L]/Kd), where [L] is the concentration of radioligand and Kd is the equilibrium dissociation constant of the radioligand-receptor complex (Cheng et al., Biochem. Pharmacol. (1973), Vol. 22, pp. 3099-3108).

[2] = target: T1, human mGlu5 receptor (Homo sapiens (Human), UniProt P41594); assay: Calcium fluorescence measurements, antagonist potency (negative allosteric modulator activity); format: cell-based; settings: EC80 of quisqualate as agonist, compounds applied 10 minutes before agonist
Description: as §1
(§3) Cells were seeded into black-walled, clear-bottom, 96-well plates at a density of 80000 cell/well, in RPMI (without Phenol Red, without L-glutamine; Gibco LifeTechnologies, CA) supplemented with 10% dialyzed FBS. Following 18-h incubation with tetracycline, the cells were loaded with […] Ca^2+-sensitive fluorescent dye Fluo-4/AM (Molecular Probes) in Hanks' balanced saline solution (HBSS, Gibco LifeTechnologies, CA) with […] Hepes (Sigma) and 2.5 mM probenecid (Sigma), for 1 h at 37° C. The cells were washed three times with HBSS to remove extracellular dye. Fluorescence signals were measured by using the fluorescence microplate reader Flexstation III (Molecular Devices) at sampling intervals of 1.5 s for 60 s.
(§4) The antagonist potency was determined using the EC80 of the quisqualate used as agonist and the potentiation of mGlu5 activation was determined using the EC20 of the agonist (quisqualate or glutamate). The compounds were applied 10 minutes before the application of the agonist.
(§5) The negative allosteric modulator activity (expressed as IC50) and the positive allosteric modulator activity (expressed as EC50) of the compounds of the invention for the mGlu5 receptors is between 0.1 and 1000 nM.
as §2

[3] = target: T1, human mGlu5 receptor; assay: Fold shift of agonist curve determination; format: cell-based; settings: ratio of EC50 agonist (quisqualate or glutamate) curves in presence and in absence of test compound; compound at 1 μM
Description: as §1, §3
The PAM potency was evaluated by performing an agonist concentration response curve in the presence of the compounds. The compounds at fixed concentration (0.01 or 0.1 or 1 μM) were applied 10 minutes before the incubation of the agonist (quisqualate or glutamate) dose-response curve. The fold shift was determined as ratio of EC50 agonist curves in presence and in absence of test compound. For instance, and in particular compound 34 has a fold shift of 2.7.

[4] = target: T1, human mGlu5 receptor; assay: Calcium fluorescence measurements, potentiation of mGlu5 activation (positive allosteric modulator activity); format: cell-based; settings: EC20 of the agonist (quisqualate or glutamate), compounds applied 10 minutes before agonist
Description: as §1, §3, §4, §5

T1 sequence (P41594 21-1212): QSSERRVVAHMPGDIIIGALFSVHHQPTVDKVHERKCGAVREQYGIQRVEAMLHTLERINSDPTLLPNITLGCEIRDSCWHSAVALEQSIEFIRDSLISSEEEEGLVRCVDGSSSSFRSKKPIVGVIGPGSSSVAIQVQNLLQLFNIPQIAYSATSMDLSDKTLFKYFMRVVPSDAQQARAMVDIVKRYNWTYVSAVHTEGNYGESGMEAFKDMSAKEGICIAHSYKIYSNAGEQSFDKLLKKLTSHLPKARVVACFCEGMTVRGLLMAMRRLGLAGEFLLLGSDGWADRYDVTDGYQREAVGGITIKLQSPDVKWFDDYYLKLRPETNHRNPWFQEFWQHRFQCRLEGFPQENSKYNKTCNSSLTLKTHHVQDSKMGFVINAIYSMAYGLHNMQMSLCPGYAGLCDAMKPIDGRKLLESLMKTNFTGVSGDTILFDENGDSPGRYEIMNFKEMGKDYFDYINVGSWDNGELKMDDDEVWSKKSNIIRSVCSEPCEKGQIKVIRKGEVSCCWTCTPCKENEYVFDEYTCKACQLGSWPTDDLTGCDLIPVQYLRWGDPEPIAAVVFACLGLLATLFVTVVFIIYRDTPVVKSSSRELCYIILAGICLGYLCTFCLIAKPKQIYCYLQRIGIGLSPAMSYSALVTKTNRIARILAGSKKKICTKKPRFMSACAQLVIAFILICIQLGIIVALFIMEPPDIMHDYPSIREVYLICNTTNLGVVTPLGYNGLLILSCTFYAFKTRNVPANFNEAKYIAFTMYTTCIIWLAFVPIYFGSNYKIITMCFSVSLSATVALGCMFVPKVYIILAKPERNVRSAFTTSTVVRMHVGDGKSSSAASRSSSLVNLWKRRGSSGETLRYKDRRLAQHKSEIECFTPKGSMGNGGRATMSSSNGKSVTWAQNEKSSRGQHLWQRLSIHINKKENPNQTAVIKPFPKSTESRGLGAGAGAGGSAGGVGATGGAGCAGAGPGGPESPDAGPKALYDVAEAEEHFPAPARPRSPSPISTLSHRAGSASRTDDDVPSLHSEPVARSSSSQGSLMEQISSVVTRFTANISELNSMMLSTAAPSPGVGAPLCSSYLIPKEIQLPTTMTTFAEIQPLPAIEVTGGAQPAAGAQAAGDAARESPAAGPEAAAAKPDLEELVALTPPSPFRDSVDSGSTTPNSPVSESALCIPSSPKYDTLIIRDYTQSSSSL
human mGluR5 receptor, sequence (P41594 21-1212): as above

Ki [1] [nM]	IC50 [2] [nM]	mGlu5 Fold Shift @1 μM [3]	EC50 [4] [nM]	SMILES
1.47				CCOC(=O)N1CC/C(=C\C#Cc2cccc(C)n2)C(C)(C)C1 [Example 3, ethyl (4E)-3,3-dimethyl-4-[3-(6-methylpyridin-2-yl)prop-2-yn-1-ylidene]piperidine-1-carboxylate]
1.01				CCOC(=O)N1CC/C(=C\C#Cc2cc(Cl)ccn2)C(C)(C)C1 [Example 18, ethyl (4E)-4-[3-(4-chloropyridin-2-yl)prop-2-yn-1-ylidene]-3,3-dimethylpiperidine-1-carboxylate]
0.89				CCOC(=O)N1CC/C(=C\C#Cc2cc(F)ccc2F)C(C)(C)C1 [Example 19, ethyl (4E)-4-[3-(2,5-difluorophenyl)prop-2-yn-1-ylidene]-3,3-dimethylpiperidine-1-carboxylate]
1.9	66.3			CCOC(=O)N1CC/C(=C\C#Cc2cccc(C(F)(F)F)c2)C(C)(C)C1 [Example 22, ethyl (4E)-3,3-dimethyl-4-{3-[3-(trifluoromethyl)phenyl]prop-2-yn-1-ylidene}piperidine-1-carboxylate]
82.9				COC(=O)N1CC/C(=C\C#Cc2nccc(C)n2)C1(C)C [Example 64, methyl (3E)-2,2-dimethyl-3-[3-(4-methylpyrimidin-2-yl)prop-2-yn-1-ylidene]pyrrolidine-1-carboxylate]
29.8				CCOC(=O)N1CC/C(=C\C#Cc2cc(C#N)ccn2)C1(C)C [Example 73, ethyl (3E)-3-[3-(4-cyanopyridin-2-yl)prop-2-yn-1-ylidene]-2,2-dimethylpyrrolidine-1-carboxylate]

The next lines start with the compound.

SMILES	Ki [1] [nM]	IC50 [2] [nM]	mGlu5 Fold Shift @1 μM [3]	EC50 [4] [nM]
Cc1cccc(C(=O)N2CC/C(=C\C#Cc3cccc(Cl)c3)C(C)(C)C2)c1 [Example 43, {(4E)-4-[3-(3-chlorophenyl)prop-2-yn-1-ylidene]-3,3-dimethylpiperidin-1-yl}(3-methylphenyl)methanone]	7.39		2.8	64.5
Cc1cc(C(=O)N2CC/C(=C\C#Cc3cccc(CO)c3)C(C)(C)C2)c(C)o1 [Example 46, (2,5-dimethylfuran-3-yl)[(4E)-4-{3-[3-(hydroxymethyl)phenyl]prop-2-yn-1-ylidene}-3,3-dimethylpiperidin-1-yl]methanone]	323		3.79	37.4
CC1(C)CN(C(=O)c2cccc(Cl)c2)CC/C1=C\c1cc(-c2cccc(Cl)c2)[nH]n1 [Example 107, (3-chlorophenyl)[(4E)-4-{[5-(3-chlorophenyl)-1H-pyrazol-3-yl]methylidene}-3,3-dimethylpiperidin-1-yl]methanone]	932		7.66	121
CC1(C)CN(C(=O)c2cccc(Cl)c2)CC/C1=C\C#Cc1cccc(C#N)c1 [Example 116, 3-{(3E)-3-[1-(3-chlorobenzoyl)-3,3-dimethylpiperidin-4-ylidene]prop-1-yn-1-yl}benzonitrile]	1.6		2.14	52.8
CC1(C)CN(C(=O)c2cccc(Cl)c2)CC/C1=C\C#Cc1cccc(CO)c1 [Example 119, (3-chlorophenyl){(4E)-4-{3-[3-(hydroxymethyl)phenyl]prop-2-yn-1-ylidene}-3,3-dimethylpiperidin-1-yl]methanone]	8.05		2.9	49.7
CC1(C)CN(C(=O)c2cccc(Cl)c2)CC/C1=C\C#Cc1ccc(F)cc1 [Example 120, (3-chlorophenyl){(4E)-4-[3-(4-fluorophenyl)prop-2-yn-1-ylidene]-3,3-dimethylpiperidin-1-yl}methanone]	4.02		5.5	38.6
CC1(C)CN(C(=O)c2cccc(O)c2)CC/C1=C\C#Cc1cccc(Cl)c1 [Example 126, {(4E)-4-[3-(3-chlorophenyl)prop-2-yn-1-ylidene]-3,3-dimethylpiperidin-1-yl}(3-hydroxyphenyl)methanone]			3.4	115
Cc1cccc(C(=O)N2CC/C(=C\C#Cc3cccc(Cl)c3)C(C)(C)C2)n1 [Example 128, {(4E)-4-[3-(3-chlorophenyl)prop-2-yn-1-ylidene]-3,3-dimethylpiperidin-1-yl}(6-methylpyridin-2-yl)methanone]	1.82		3.5	165
COc1cccc(C(=O)N2CC/C(=C\C#Cc3cccc(Cl)c3)C(C)(C)C2)c1 [Example 137, {(4E)-4-[3-(3-chlorophenyl)prop-2-yn-1-ylidene]-3,3-dimethylpiperidin-1-yl}(3-methoxyphenyl)methanone]			2.1	268
COc1cc(OC)nc(C(=O)N2CC/C(=C\C#Cc3cccc(Cl)c3)C(C)(C)C2)n1 [Example 166, {(4E)-4-[3-(3-chlorophenyl)prop-2-yn-1-ylidene]-3,3-dimethylpiperidin-1-yl}(4,6-dimethoxypyrimidin-2-yl)methanone]			1.35	
CCn1nc(C)c(C(=O)N2CC/C(=C\C#Cc3cccc(Cl)c3)C(C)(C)C2)n1 [Example 167, {(4E)-4-[3-(3-chlorophenyl)prop-2-yn-1-ylidene]-3,3-dimethylpiperidin-1-yl}(2-ethyl-5-methyl-2H-1,2,3-triazol-4-yl)methanone]	2.42		2.7	23
CC1(C)CN(C(=O)c2cccc(Cl)c2)CC/C1=C\C#Cc1cccc(O)c1 [Example 191, (3-chlorophenyl){(4E)-4-[3-(3-hydroxyphenyl)prop-2-yn-1-ylidene]-3,3-dimethylpiperidin-1-yl}methanone]	7.35		3.9	224
COc1cccc(C(=O)N2CC/C(=C\C#Cc3cccc(C#N)c3)C(C)(C)C2)c1 [Example 196, 3-{(3E)-3-[1-(3-methoxybenzoyl)-3,3-dimethylpiperidin-4-ylidene]prop-1-yn-1-yl}benzonitrile]			2.2	87.7
Cc1cc(C(=O)N2CC/C(=C\C#Cc3cc(F)cc(C#N)c3)C(C)(C)C2)c(C)o1 [Example 200, 3-[(3E)-3-{1-[(2,5-dimethylfuran-3-yl)carbonyl]-3,3-dimethylpiperidin-4-ylidene}prop-1-yn-1-yl]-5-fluorobenzonitrile]	637		2.3	291
O=C(c1cccc(Cl)c1)N1CC/C(=C\C#Cc2cccc(Cl)c2)C(F)(F)C1 [Example 201, (3-chlorophenyl){(4E)-4-[3-(3-chlorophenyl)prop-2-yn-1-ylidene]-3,3-difluoropiperidin-1-yl}methanone]	1.91		4.5	88.2
